Measurements from ChEMBL document CHEMBL5678818, “Discovery of potent SOS1 inhibitors that block RAS activation via disruption of the RAS-SOS1 interaction” (Proc Natl Acad Sci U S A, 2019).
Calls of active or inactive are those of the source. The calls are words filed in the database; no cut-off is given here.

Tests used:
[1] = molecular target: Serine/threonine-protein kinase 38 (Homo sapiens) (UniProt Q15208); experiment: Inhibition of NDR1 (unknown origin) assessed as residual activity at 100 nM by KINOMEscan analysis relative to control
[2] = molecular target: T1, Phosphatidylinositol 3-kinase C2 domain-containing subunit gamma (Homo sapiens) (UniProt O75747); experiment: Inhibition of PIK3C2G (unknown origin) assessed as residual activity at 100 nM by KINOMEscan analysis relative to control
T1 sequence (whole entry): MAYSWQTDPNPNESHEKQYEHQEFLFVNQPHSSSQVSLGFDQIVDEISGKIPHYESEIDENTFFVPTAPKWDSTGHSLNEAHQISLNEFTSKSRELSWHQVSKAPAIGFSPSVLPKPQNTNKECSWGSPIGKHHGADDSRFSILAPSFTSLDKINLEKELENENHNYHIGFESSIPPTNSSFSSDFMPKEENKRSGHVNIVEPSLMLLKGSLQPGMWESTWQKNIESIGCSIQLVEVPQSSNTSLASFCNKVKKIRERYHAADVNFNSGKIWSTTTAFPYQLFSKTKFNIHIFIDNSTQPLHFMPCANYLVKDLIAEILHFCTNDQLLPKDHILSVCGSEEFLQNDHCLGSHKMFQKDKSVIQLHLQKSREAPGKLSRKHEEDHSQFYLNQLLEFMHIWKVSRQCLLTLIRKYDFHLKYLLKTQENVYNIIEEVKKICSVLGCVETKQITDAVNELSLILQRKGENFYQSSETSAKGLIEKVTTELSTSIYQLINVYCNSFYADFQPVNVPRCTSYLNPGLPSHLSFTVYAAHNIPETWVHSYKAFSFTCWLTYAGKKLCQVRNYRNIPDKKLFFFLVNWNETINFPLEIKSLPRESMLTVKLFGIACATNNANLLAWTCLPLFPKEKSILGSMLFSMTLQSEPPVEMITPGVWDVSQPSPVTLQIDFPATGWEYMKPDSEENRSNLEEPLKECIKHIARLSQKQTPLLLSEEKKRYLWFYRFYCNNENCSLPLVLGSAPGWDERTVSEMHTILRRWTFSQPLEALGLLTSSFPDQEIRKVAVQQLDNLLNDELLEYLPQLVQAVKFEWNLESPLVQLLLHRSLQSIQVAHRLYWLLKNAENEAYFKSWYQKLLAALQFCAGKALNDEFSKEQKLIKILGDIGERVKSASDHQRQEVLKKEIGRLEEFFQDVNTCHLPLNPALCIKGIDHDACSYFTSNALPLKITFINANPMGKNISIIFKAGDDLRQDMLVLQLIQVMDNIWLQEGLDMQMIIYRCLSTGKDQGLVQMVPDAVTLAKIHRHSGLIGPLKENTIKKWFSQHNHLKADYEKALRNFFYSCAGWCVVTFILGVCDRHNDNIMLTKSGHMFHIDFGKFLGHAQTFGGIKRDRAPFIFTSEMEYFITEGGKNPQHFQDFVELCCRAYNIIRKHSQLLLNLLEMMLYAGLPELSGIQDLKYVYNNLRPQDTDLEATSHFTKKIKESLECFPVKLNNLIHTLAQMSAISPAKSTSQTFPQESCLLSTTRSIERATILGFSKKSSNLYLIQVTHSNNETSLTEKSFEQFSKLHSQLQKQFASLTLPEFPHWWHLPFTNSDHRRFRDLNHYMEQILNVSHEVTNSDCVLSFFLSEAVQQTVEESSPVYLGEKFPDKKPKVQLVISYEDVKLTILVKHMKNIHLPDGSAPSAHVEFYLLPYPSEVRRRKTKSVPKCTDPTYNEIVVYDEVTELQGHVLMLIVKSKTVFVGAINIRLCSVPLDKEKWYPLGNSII

[3] = molecular target: Serine/threonine-protein kinase NIM1 (Homo sapiens) (UniProt Q8IY84); experiment: Inhibition of NIM1 (unknown origin) assessed as residual activity at 100 nM by KINOMEscan analysis relative to control
[4] = molecular target: T2, cGMP-dependent protein kinase 1 (Homo sapiens) (UniProt Q13976); experiment: Inhibition of PRKG1 (unknown origin) assessed as residual activity at 100 nM by KINOMEscan analysis relative to control
T2 sequence (whole entry): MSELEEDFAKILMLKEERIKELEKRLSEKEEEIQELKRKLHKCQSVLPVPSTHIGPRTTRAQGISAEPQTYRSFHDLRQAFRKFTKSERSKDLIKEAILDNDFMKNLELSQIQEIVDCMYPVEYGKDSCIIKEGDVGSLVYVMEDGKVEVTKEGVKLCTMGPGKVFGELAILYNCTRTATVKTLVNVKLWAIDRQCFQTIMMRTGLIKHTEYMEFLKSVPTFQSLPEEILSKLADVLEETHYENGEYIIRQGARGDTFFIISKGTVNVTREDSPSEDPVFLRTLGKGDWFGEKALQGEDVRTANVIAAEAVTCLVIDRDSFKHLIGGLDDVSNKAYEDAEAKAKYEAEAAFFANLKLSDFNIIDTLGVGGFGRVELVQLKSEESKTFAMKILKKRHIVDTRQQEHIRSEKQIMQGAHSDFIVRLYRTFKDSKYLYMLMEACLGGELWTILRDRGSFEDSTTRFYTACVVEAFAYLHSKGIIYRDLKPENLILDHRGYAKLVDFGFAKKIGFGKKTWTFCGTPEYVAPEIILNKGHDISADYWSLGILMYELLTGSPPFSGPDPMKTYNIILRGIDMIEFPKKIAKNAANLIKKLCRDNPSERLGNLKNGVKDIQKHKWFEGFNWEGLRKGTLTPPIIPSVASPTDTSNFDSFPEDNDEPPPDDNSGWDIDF

Homo sapiens = organism: Homo sapiens; experiment: Inhibition of N-terminal His10-tagged recombinant human KRAS G12C/C118S mutant (1 to 169 residues) expressed in Escherichia coli/Series S C1 sensor chip-immobilized biotinylated N-terminal His10-tagged wild-type recombinant human SOS1 catalytic domain (564 to 1049 residues) expressed in Escherichia coli protein-protein interaction at 10 uM measured for 360 secs by SPR analysis; details: time 360.0 sec
[5] = molecular target: Ribosomal protein S6 kinase alpha-1 (Homo sapiens) (UniProt Q15418); experiment: Inhibition of N-terminal RSK1 kinetic domain 1 (unknown origin) assessed as residual activity at 100 nM by KINOMEscan analysis relative to control
[6] = molecular target: Tyrosine-protein kinase ABL1 (Homo sapiens) (UniProt P00519); experiment: Inhibition of nonphosphorylated ABL1 (unknown origin) assessed as residual activity at 100 nM by KINOMEscan analysis relative to control
[7] = molecular target: NT-3 growth factor receptor (Homo sapiens) (UniProt Q16288); experiment: Inhibition of TRKC (unknown origin) assessed as residual activity at 100 nM by KINOMEscan analysis relative to control
Chain of NT-3 growth factor receptor (Homo sapiens) (Q16288 32-839 limits assumed): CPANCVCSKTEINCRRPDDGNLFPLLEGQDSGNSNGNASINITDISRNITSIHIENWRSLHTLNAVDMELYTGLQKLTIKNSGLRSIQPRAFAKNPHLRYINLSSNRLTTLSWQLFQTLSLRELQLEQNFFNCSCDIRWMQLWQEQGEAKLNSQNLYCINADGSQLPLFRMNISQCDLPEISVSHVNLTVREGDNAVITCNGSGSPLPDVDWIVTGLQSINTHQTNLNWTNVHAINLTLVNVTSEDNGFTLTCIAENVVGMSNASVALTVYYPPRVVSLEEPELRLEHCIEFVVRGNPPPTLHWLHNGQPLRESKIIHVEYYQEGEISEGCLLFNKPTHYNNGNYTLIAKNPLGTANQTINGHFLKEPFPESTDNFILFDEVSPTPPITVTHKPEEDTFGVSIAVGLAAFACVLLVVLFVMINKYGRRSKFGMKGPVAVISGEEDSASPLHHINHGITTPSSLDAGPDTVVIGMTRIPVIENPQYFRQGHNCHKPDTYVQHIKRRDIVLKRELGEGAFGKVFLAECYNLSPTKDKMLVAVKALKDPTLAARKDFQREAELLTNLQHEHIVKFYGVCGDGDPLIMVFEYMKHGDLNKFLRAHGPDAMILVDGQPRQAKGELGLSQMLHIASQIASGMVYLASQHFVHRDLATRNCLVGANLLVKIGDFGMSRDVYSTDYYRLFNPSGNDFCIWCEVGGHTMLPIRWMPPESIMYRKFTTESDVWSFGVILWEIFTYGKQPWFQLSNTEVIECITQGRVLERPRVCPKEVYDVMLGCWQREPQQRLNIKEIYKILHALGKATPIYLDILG

Chain of Serine/threonine-protein kinase 38 (Homo sapiens) (Q15208 2-465 limits assumed): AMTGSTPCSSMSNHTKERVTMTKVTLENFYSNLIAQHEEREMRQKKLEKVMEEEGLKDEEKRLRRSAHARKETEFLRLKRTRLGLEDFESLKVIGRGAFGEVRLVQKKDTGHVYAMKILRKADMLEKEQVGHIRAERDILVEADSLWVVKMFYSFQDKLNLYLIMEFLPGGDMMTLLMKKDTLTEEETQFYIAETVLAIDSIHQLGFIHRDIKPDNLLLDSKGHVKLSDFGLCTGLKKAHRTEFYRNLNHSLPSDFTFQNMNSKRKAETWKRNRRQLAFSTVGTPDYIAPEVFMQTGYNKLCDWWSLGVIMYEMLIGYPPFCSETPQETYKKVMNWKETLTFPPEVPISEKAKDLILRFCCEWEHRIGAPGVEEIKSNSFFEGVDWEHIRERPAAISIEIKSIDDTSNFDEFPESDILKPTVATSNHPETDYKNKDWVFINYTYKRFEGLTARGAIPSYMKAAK
Chain of Ribosomal protein S6 kinase alpha-1 (Homo sapiens) (Q15418 whole entry, the tested form may be a part): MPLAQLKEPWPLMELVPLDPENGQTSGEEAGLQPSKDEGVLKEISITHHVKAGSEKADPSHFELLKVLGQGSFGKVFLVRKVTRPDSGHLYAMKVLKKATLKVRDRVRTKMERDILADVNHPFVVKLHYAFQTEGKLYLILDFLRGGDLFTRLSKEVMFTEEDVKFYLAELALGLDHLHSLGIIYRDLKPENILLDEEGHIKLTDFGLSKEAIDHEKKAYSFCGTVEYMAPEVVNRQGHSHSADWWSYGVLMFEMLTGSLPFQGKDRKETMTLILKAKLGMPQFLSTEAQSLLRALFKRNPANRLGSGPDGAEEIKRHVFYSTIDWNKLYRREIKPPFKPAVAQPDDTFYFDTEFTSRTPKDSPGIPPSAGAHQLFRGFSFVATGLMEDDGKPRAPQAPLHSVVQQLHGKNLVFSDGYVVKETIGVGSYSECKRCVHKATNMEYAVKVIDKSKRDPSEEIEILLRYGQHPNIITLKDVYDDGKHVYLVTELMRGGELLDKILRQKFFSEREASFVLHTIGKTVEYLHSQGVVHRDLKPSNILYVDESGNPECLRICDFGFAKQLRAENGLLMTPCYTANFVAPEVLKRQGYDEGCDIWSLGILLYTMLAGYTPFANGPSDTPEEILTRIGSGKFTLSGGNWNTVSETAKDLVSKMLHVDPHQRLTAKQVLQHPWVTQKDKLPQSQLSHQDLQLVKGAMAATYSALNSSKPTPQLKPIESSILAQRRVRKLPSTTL
Chain of Serine/threonine-protein kinase NIM1 (Homo sapiens) (Q8IY84 whole entry): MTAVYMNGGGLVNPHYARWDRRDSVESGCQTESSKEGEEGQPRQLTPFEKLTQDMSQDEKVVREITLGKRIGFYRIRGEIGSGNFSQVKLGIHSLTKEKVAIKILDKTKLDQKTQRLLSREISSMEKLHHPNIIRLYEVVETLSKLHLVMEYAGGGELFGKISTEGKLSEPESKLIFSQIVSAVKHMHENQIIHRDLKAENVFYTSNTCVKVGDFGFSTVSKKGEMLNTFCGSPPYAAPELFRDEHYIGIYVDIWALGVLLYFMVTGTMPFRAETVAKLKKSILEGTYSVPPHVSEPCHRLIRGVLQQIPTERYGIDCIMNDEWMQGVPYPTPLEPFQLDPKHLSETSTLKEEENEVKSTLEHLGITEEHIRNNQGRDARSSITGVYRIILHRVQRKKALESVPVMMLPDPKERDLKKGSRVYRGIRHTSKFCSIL
Chain of Tyrosine-protein kinase ABL1 (Homo sapiens) (P00519 whole entry): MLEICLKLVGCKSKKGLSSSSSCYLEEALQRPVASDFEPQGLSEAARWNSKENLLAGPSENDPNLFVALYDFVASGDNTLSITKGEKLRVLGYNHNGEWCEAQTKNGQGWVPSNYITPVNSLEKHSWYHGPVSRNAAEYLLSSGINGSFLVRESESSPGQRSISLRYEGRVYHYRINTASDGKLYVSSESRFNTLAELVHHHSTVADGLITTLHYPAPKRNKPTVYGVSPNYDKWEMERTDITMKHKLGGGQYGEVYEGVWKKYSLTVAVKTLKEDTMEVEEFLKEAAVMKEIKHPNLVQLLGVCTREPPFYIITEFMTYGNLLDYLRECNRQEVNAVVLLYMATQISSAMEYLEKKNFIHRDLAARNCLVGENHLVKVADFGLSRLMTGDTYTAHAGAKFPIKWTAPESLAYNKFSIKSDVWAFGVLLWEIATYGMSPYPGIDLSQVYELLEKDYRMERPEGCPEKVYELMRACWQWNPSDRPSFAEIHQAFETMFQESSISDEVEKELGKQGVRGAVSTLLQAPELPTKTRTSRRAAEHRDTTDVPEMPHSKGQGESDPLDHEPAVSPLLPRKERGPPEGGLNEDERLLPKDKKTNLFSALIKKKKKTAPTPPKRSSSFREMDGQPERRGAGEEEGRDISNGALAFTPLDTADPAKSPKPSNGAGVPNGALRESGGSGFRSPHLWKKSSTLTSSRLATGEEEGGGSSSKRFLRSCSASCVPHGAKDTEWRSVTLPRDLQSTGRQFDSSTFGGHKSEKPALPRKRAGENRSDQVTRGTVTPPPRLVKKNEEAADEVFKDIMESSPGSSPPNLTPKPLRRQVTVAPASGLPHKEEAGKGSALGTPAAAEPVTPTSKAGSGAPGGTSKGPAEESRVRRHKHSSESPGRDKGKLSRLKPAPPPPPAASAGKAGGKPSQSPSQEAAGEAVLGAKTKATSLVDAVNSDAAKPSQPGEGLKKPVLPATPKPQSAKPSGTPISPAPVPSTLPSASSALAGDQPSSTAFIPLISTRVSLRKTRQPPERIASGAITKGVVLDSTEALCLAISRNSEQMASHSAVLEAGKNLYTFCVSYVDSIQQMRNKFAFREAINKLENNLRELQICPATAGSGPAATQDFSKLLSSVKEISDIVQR

Compound: COc1cc2ncnc(N[C@H](C)c3cccc4ccccc34)c2cc1OC
- Activity [1]: 80%
- Activity [2]: 85%
- Activity [3]: 78%
- Activity [4]: 96%
- Activity (Homo sapiens): Active
- Activity [5]: 90%
- Activity [6]: 99%
- Activity [7]: 89%
